According to PMC12706794, “Identification and Characterization of a Small-Molecule Inhibitor of the Pseudomonas aeruginosa SOS Response” (ACS Infectious Diseases, 2025):
≈ marks a conversion by molar mass, not a printed value.

Key:
[1] = molecular target: T1, RecAPa*-induced FlAsH-LexAPa CTD autoproteolysis (Pseudomonas aeruginosa, UniProt P37452); experiment: FP-based RecA*-induced LexA autoproteolysis in vitro assay; assay type: biochemical, P. aeruginosa; conditions: highest concentration tested, range 0.2 to 2 mM
T1 construct: 6His-SUMO (N, cleaved yes); made in house; host or cells: E. coli BL21(DE3)
Method: A custom-made library of 318 small molecules (MW < 1000 Da) has been screened at two different concentrations (25 μg/mL and 125 μg/mL, corresponding to molar concentrations of 30–170 μM and 150–850 μM, respectively) on the P. aeruginosa SOS system by a previously validated fluorescence polμarization (FP)-based RecA*-induced LexA autoproteolysis in vitro assay. , 1 μM FlAsH-LexAPa ^CTD and 1 μM preactivated RecA*Pa were incubated with the screened chemical fragments for 1 h at 37 °C before measuring FP.
Then, the FP-based LexA autoproteolysis assay was repeated on the two hits, monitoring the full kinetics of LexA cleavage over a 1 h incubation and exploring a wide range of drug concentrations (10–1000 μM).
A custom-made library of 318 chemical fragments (25 mg/mL stock solutions in DMSO), provided by P. Kavaliauskas (Weill Cornell Medicine of Cornell University) was screened in vitro for their ability to inhibit RecAPa*-mediated LexAPa autoproteolysis by a Fluorescence Polarization (FP)-based assay. , Twenty microliter reactions were set up in Nunc 384-Well Black microplates, and final reaction mixtures included 1 μM FlAsH-LexAPa ^CTD, the compounds (5% v/v DMSO in all the samples, including the controls devoid of compounds), and 1 μM RecAPa* (FP Buffer in the negative control; 30 mM Hepes, 150 mM NaCl, pH 7.1). The initial screening was performed with two dilutions of the compounds (25 and 125 μg/mL). The FP signal was measured after a 1 h incubation at 37 °C by an EnVision MultiMode Plate Reader (PerkinElmer) equipped with opportune FP filters and mirrors. To obtain LexAPa ^CTD autoproteolysis percent inhibition, FP data were scaled from 0% (corresponding to the positive control sample) to 100% (negative control).
Compounds displaying an inhibition of at least 50% at the highest concentration and a rather consistent increase in activity at the two tested concentrations were selected as the hits.
The same FP assay was carried out on serial dilutions of selected compounds to determine the dose–response relationship. To evaluate the effect of a reducing environment, 2 mM Tris(2-carboxyethyl)-phosphine (TCEP) was added to the reaction mixtures. The FP signal of FlAsH-LexAPa ^CTD alone was detected for 5 min before adding the compounds. The system was monitored for an additional 5 min in the presence of the tested compounds in order to observe potential aggregation events. Then, RecAPa* was added, and the autoproteolysis reaction was followed for 1 h at 37 °C (1 reading per minute). FlAsH-LexAPa ^CTD autoproteolysis percent inhibition was calculated as mentioned above and plotted as a function of compound concentration. Experimental data fitting was performed with GraphPad Prism 8 to obtain the absolute IC50.

[2] = system: P. aeruginosa PAO1 on THP-1-derived macrophages; experiment: P. aeruginosa PAO1 colonization of THP-1-derived macrophages; assay type: cell-based; conditions: single agent: ciprofloxacin 0.5 μg/mL or A12 100 μg/mL; 3 h infection
Method: THP-1-derived macrophages were generated from THP-1 monocytes as previously described, with minor modifications. , Briefly, THP-1 monocytes were washed three times with antibiotic-free RPMI 1640 medium and resuspended in complete antibiotic-free RPMI 1640 supplemented with 300 nM phorbol 12-myristate 13-acetate (PMA). Cells were incubated for 24 h, followed by a 48 h rest period in PMA-free RPMI 1640 prior to use in subsequent experiments. […] PMA-differentiated THP-1-derived macrophages were similarly trypsinized and seeded into 24-well plates at 5 × 10^5 cells/well in complete, antibiotic-free RPMI supplemented with FBS. Cells were incubated overnight to allow for attachment. Immediately prior to infection, the medium was aspirated, and cells were washed three times with Dulbecco’s phosphate-buffered saline. […] Infection was synchronized by centrifuging plates at 1000g for 1 min. […] Following the infection period, the medium was aspirated, and cells were washed three times with DPBS to remove unattached bacteria and residual test compounds. […] In both cases, the resulting lysates were serially diluted in DPBS and plated on tryptic soy agar plates. Plates were incubated at 37 °C for 24 h, after which colonies were enumerated. Bacterial burden was expressed as the CFU per well.

P. aeruginosa PAO1 = experiment: Antimicrobial susceptibility testing (MIC); assay type: cell-based, P. aeruginosa PAO1 (ATCC 15692); conditions: for MIC: Pseudomonas aeruginosa, PAO1
Method: The MIC of compound A12 and antibiotics was determined by using the Clinical Laboratory Standard Institute (CLSI) recommendations with minor modifications. […] Microplates were incubated in a humidified incubator for 18 h at 37 °C, and the bacterial growth was quantified by OD600. According to CLSI, MICs are defined as the lowest concentrations of antimicrobial agents that prevent visible growth.

[3] = molecular target: LexAPa S125A (uncleavable mutant) (Pseudomonas aeruginosa ATCC 27853, UniProt P37452 1-204, S125A); experiment: EMSA; no A12, 10% DMSO; 8 uM LexA, 1 uM DNA; conditions: protein: recombinant; chain copies: 2; blunt
[4] = A12 (32 μg/mL) (+), in combination

Molecule | MIC on P. aeruginosa PAO1 (P. aeruginosa PAO1; [4]) | MIC (P. aeruginosa PAO1; A12 (32 μg/mL) (−)) | other results
CC(CC(=O)O)Nc1ccccc1CCc1ccccc1NC(C)CC(=O)O (stereo not shown) [BG-194, 3,3′-((ethane-1,2-diylbis(2,1-phenylene))bis(azanediyl))dibutyric acid] | – | – | LexAPa autocleavage percent inhibition of A12 derivatives [1]: did not display any inhibitory activity
O=C(O)c1cn(C2CC2)c2cc(N3CCNCC3)c(F)cc2c1=O [Ciprofloxacin, reference compound] | – | – | Total (adherent + intracellular) burden of PAO1 on THP-1-derived macrophages [2]: diminished
C[C@H]1COc2c(N3CCN(C)CC3)c(F)cc3c(=O)c(C(=O)O)cn1c23 [Levofloxacin] | 0.125 µg/mL | 0.0625 µg/mL (≈ 0.173 µM) | –
COc1c(N2C[C@@H]3CCCN[C@@H]3C2)c(F)cc2c(=O)c(C(=O)O)cn(C3CC3)c12 [Moxifloxacin] | – | 0.0312 µg/mL (≈ 0.0777 µM) | –
CO/N=C(\C(=O)N[C@@H]1C(=O)N2C(C(=O)O)=C(CSc3nc(=O)c(=O)[nH]n3C)CS[C@H]12)c1csc(N)n1 [Ceftriaxone] | 8 µg/mL | 8 µg/mL (≈ 14.4 µM) | –
Gentamycin | 2 µg/mL | – | MIC on P. aeruginosa PAO1 (P. aeruginosa PAO1; A12 (32 μg/mL) (−)): 2 µg/mL
CN(C)[C@@H]1C(O)=C(C(N)=O)C(=O)[C@@]2(O)C(O)=C3C(=O)c4c(O)cccc4[C@@](C)(O)[C@H]3C[C@@H]12 [Tetracycline] | 4 µg/mL | 4 µg/mL (≈ 9 µM) | –
O=C(O)CCNc1ccccc1CCc1ccccc1NCCC(=O)O [BG-191, 3,3′-((ethane-1,2-diylbis(2,1-phenylene))bis(azanediyl))dipropionic acid] | – | – | LexAPa autocleavage percent inhibition of A12 derivatives [1]: 20%
SOS-box dsDNA (AT-repeat) (dsDNA) DNA 1: GATGCCTGCGGATACTGTATATATATACAGTATCAATTCTGGCT DNA 2: AGCCAGAATTGATACTGTATATATATACAGTATCCGCAGGCATC | – | – | binding result [3]: binds
